# Assays:
# Assay in all cases: relative viability (nuclei count vs DMSO), 5 days (fraction); higher = more cells survive
# [1] = compound: COC1=CC=C(C=C1)CN2C=CC3=C2C=C(C=C3)C(=O)NO + CC(C)C[C@H](NC(=O)[C@H](Cc1ccccc1)NC(=O)c1cnccn1)B(O)O [Bortezomib] (partner 0.002 µM)
# Procedure, shortened: (§1)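 After 5 days of treatment, lung cancer cells in 1536-well plates were fixed and stained in a single step (final 0.05% Triton X-100, 1% formaldehyde, 1 ug/ml Hoechst) and their nuclei counted on 4× images. Treatment had been applied by pin tool the day after seeding as one drug alone or as a fixed anchor-drug dose with five library-drug doses (not always all listed) in √10 steps. Relative viability is the nuclei count of treated wells divided by that of vehicle wells, and values are medians of duplicate plates.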
# [2] = compound: COC1=CC=C(C=C1)CN2C=CC3=C2C=C(C=C3)C(=O)NO + CS(=O)(=O)N1CCN(Cc2cc3nc(-c4cccc5[nH]ncc45)nc(N4CCOCC4)c3s2)CC1 [Pictilisib] (partner 1 µM)
# Procedure, shortened: as §1
# [3] = compound: COC1=CC=C(C=C1)CN2C=CC3=C2C=C(C=C3)C(=O)NO + O=C(c1cc(Cc2n[nH]c(=O)c3ccccc23)ccc1F)N1CCN(C(=O)C2CC2)CC1 [Olaparib] (partner 8 µM)
# Procedure, shortened: as §1
# [4] = compound: C[C@]1(c2nc3c(C(N)=O)cccc3[nH]2)CCCN1 [Veliparib] + Cc1nc(Nc2ncc(C(=O)Nc3c(C)cccc3Cl)s2)cc(N2CCN(CCO)CC2)n1 [Dasatinib] (partner 0.075 µM)
# Procedure, shortened: as §1
Cell Line,relative viability ([1]; first compound 0.08 µM),relative viability ([1]; first compound 0.253 µM),relative viability ([1]; first compound 0.8 µM),relative viability ([1]; first compound 2.53 µM),relative viability ([1]; first compound 8 µM),relative viability ([2]; first compound 0.08 µM),relative viability ([2]; first compound 0.253 µM),relative viability ([2]; first compound 0.8 µM),relative viability ([2]; first compound 2.53 µM),relative viability ([2]; first compound 8 µM),relative viability ([3]; first compound 0.253 µM),relative viability ([3]; first compound 0.8 µM),relative viability ([3]; first compound 2.53 µM),relative viability ([3]; first compound 8 µM),relative viability ([4]; first compound 0.02 µM),relative viability ([4]; first compound 0.06325 µM),relative viability ([4]; first compound 0.2 µM),relative viability ([4]; first compound 0.6325 µM),relative viability ([4]; first compound 2 µM),relative viability ([3]; first compound 0.08 µM)
LOU-NH91,0.387,0.472,0.466,0.476,0.504,0.45,0.53,0.522,0.528,0.497,0.95,0.928,0.903,0.894,0.529,0.522,0.537,0.544,0.53,
LU99A,,1.13,1.14,1.06,0.938,,0.338,0.355,0.295,0.283,0.277,0.262,0.252,0.26,0.592,0.51,0.612,0.517,0.431,
LXF-289,0.699,1,0.956,0.964,0.931,0.309,0.779,0.754,0.799,0.723,1.05,1.11,1.11,1.11,0.251,0.2,0.251,0.204,0.224,
NCI-H23,1.04,1.02,1.14,0.975,0.594,0.275,0.538,0.49,0.559,0.349,0.282,0.314,0.322,0.304,0.622,0.71,0.753,0.75,0.87,0.302
NCI-H322M,,0.971,1.27,1.23,1.26,,0.542,0.544,0.501,0.45,,0.805,0.845,0.621,,0.231,0.246,0.27,0.253,
NCI-H441,0.331,0.406,0.543,0.497,0.413,0.344,0.613,0.548,0.572,0.438,0.58,0.526,0.497,0.609,0.502,0.572,0.591,0.558,0.691,0.441
NCI-H460,1.02,0.984,1.04,1.14,1.01,0.0712,0.248,0.405,0.377,0.348,0.457,0.401,0.465,0.397,0.456,0.393,0.419,0.466,0.479,0.426
NCI-H520,0.218,0.722,0.64,0.751,0.525,0.265,0.266,0.314,0.276,0.271,0.362,0.327,0.339,0.286,0.194,0.233,0.176,0.168,0.188,0.342
NCI-H596,1.04,,0.943,1.07,1.02,0.349,0.408,0.411,0.468,0.409,0.778,0.735,0.805,0.725,0.611,0.571,0.641,0.521,0.633,0.66
NCI-H647,0.789,0.929,0.848,0.846,1.11,,0.42,0.523,0.373,0.308,0.537,0.422,0.495,0.547,0.164,0.187,0.243,0.165,0.192,0.557
NCI-H650,0.832,0.732,0.881,0.928,0.64,0.901,0.895,0.856,0.861,0.829,0.417,0.452,0.353,0.418,0.378,0.372,0.414,0.369,0.423,0.351
NCI-H661,,0.811,0.649,0.843,0.715,,0.358,0.35,0.375,0.318,0.726,0.778,0.67,0.66,0.886,0.846,0.777,0.86,0.869,
NCI-H727,0.834,0.98,1.09,0.908,0.755,0.344,0.299,0.553,0.306,0.488,0.709,0.755,0.649,0.622,0.267,0.365,0.305,0.47,0.331,0.68
NCI-H838,,0.99,0.899,0.885,0.719,,0.464,0.512,0.413,0.399,0.843,0.796,0.735,0.696,0.269,0.287,0.256,0.246,0.326,0.622
NCI-H1355,1.1,1.15,1.34,1.27,1.19,0.156,0.501,0.489,0.498,0.372,0.807,0.773,0.775,0.727,,0.676,0.682,0.611,0.524,0.419
NCI-H1437,0.38,0.483,0.527,0.581,0.393,0.47,0.449,0.473,0.481,0.412,0.635,0.626,0.676,0.618,0.212,0.36,0.424,0.421,0.249,0.603
NCI-H1650,0.17,0.174,0.208,0.211,0.195,0.173,0.595,0.567,0.541,0.32,0.813,0.775,0.762,0.78,,0.319,0.3,0.271,0.223,0.753

Cell Line,relative viability ([1]; first compound 0.08 µM),relative viability ([1]; first compound 0.253 µM),relative viability ([1]; first compound 0.8 µM),relative viability ([1]; first compound 2.53 µM),relative viability ([1]; first compound 8 µM),relative viability ([2]; first compound 0.08 µM),relative viability ([2]; first compound 0.253 µM),relative viability ([2]; first compound 0.8 µM),relative viability ([2]; first compound 2.53 µM),relative viability ([2]; first compound 8 µM),relative viability ([3]; first compound 0.253 µM),relative viability ([3]; first compound 0.8 µM),relative viability ([3]; first compound 2.53 µM),relative viability ([3]; first compound 8 µM),relative viability ([4]; first compound 0.02 µM),relative viability ([4]; first compound 0.06325 µM),relative viability ([4]; first compound 0.2 µM),relative viability ([4]; first compound 0.6325 µM),relative viability ([4]; first compound 2 µM),relative viability ([3]; first compound 0.08 µM)
NCI-H1651,0.923,0.887,0.923,0.888,0.857,0.572,0.427,0.606,0.65,0.452,0.158,0.194,0.182,0.179,0.296,0.403,0.383,0.4,0.348,0.168
NCI-H1666,0.621,1.02,0.782,0.84,0.774,0.523,0.49,0.47,0.525,0.525,0.737,0.745,0.682,0.818,0.725,0.846,0.766,0.753,0.757,0.746
NCI-H1734,,1.03,0.91,0.898,0.725,,0.487,0.437,0.384,0.416,0.325,0.63,0.55,0.676,0.523,0.473,0.569,0.443,0.505,
NCI-H1755,0.91,0.992,0.949,0.992,0.97,0.267,0.458,0.51,0.383,0.363,0.89,0.831,0.955,0.867,0.392,0.37,0.401,0.375,0.413,0.77
NCI-H1792,0.95,0.945,0.979,0.931,0.7,0.301,0.314,0.297,0.326,0.209,0.578,0.445,0.447,0.561,0.79,0.79,0.822,0.707,0.717,0.438
NCI-H1915,0.769,0.921,0.989,0.924,1.02,0.62,0.997,1.08,0.973,0.735,0.26,0.234,0.259,0.24,0.307,0.329,0.301,0.314,0.297,0.233
NCI-H1975,0.422,0.382,0.408,0.455,0.363,0.304,0.297,0.281,0.299,0.252,0.815,0.697,0.678,0.785,0.336,0.37,0.331,0.368,0.372,0.77
NCI-H1993,0.934,1.16,1.15,1.2,1.04,0.717,0.0552,0.772,0.837,0.756,1.31,1.25,1.06,0.885,0.496,0.571,0.537,0.64,0.522,0.699
NCI-H2009,0.771,0.967,0.958,0.975,0.84,0.601,0.836,0.91,0.788,0.604,0.694,0.678,0.643,0.658,0.332,0.319,0.331,0.29,0.292,0.682
NCI-H2023,0.728,1.05,0.944,1.03,0.878,0.105,0.239,0.227,0.236,0.202,0.475,0.464,0.433,0.413,0.511,0.596,0.532,0.547,0.625,0.453
NCI-H2085,1.05,1.24,1.14,1.1,1.08,0.44,0.491,0.53,0.492,0.426,0.723,0.842,0.777,0.768,0.239,0.213,0.262,0.252,0.246,0.803
NCI-H2087,0.863,0.775,0.898,0.754,0.606,0.497,0.936,0.776,0.976,0.674,0.595,0.676,0.524,0.56,0.738,0.731,0.886,0.788,0.942,0.564
NCI-H2126,1.06,1.09,1.15,1.12,1.05,0.479,0.496,0.53,0.558,0.443,0.945,0.961,0.956,0.874,0.618,0.539,0.612,0.658,0.668,0.869
NCI-H2228,1.22,1.03,0.93,1.18,0.863,0.375,0.326,0.536,0.46,0.251,0.82,0.79,0.88,0.651,0.51,0.509,0.508,0.357,0.467,0.686
NCI-H2347,,0.933,0.887,0.874,0.727,0.494,0.652,0.596,,0.462,0.53,0.651,0.67,0.524,0.327,0.266,0.275,0.336,0.315,0.53
NCI-H2405,0.546,0.924,1.02,1.01,0.961,0.316,0.378,0.532,0.405,0.331,,0.85,0.887,0.799,0.225,0.171,0.225,0.244,0.222,0.649
